Series [1] in a line: Selectivity index, ratio of CC50 for human MRC5 cells to EC50 for antimalarial activity against Plasmodium falciparum 3D7. The format is toxicity. The conditions noted are these: read-out: Selectivity Index.
Series [2] is described as follows: Aqueous solubility of compound. In kind it is physicochemical.
The nature of series [3]: Intrinsic clearance in mouse liver microsomes. The format is ADME, Microsome. In general terms: Liver microsomes are a subcellular fraction often used to study metabolism.
The subject of series [4] is Plasmodium falciparum. Kind of series: Antimalarial activity against Plasmodium falciparum 3D7. In kind it is functional, organism-based.
Series [5] deals with Plasmodium falciparum. Kind of series: Antimalarial activity against drug resistant Plasmodium falciparum NF5. In kind it is functional, organism-based.
The subject of series [6] is Plasmodium falciparum. Kind of series: Antimalarial activity against drug resistant Plasmodium falciparum TM90C2A. In kind it is functional, organism-based.
For series [7], the system named is Plasmodium berghei. The series can be described thus: Antimalarial activity against Plasmodium berghei infected in mouse assessed as reduction in parasitemia at 1 mg/kg, po dosed 4 times. The format is functional.
Series [8] has as its system Plasmodium falciparum. Kind of series: Antimalarial activity against drug resistant Plasmodium falciparum D6. The format is functional, organism-based.
Series [9] relates to Plasmodium falciparum. The series can be described thus: Antimalarial activity against drug resistant Plasmodium falciparum K1. The format is functional, organism-based.
The subject of series [10] is Plasmodium falciparum. Kind of series: Antimalarial activity against drug resistant Plasmodium falciparum W2. In kind it is functional, organism-based.
The subject of series [11] is Plasmodium falciparum. The series can be described thus: Antimalarial activity against drug resistant Plasmodium falciparum V1/S. The format is functional, organism-based.
Series [12] has as its system Plasmodium berghei. Kind of series: Antimalarial activity against Plasmodium berghei infected in orally dosed mouse assessed as reduction in parasitemia. The format is functional. The conditions noted are these: po.
In series [13] the test system is Plasmodium falciparum. Kind of series: Antimalarial activity against drug resistant Plasmodium falciparum 7G8. The format is functional, organism-based.

We go through four compounds from ChEMBL document CHEMBL4715792, “In Vivo and In Vitro Optimization of Screening Antimalarial Hits toward Lead Molecules for Preclinical Development” (J Med Chem, 2016).

In brackets after ≈: the same amount, converted by molar mass.

Turning to `Cc1ccc(-c2cc(C(=O)Nc3cccnc3)c3cc(Br)ccc3n2)cc1`, the selectivity ratio in [1] was greater than 100. The compound further registered a solubility in series [2] of no more than 39 µM. The Intrinsic clearance entry in series [3] is recorded as “>= 5 ml/min/g”.
In turn, `Cc1ccc(-c2cc(C(=O)Nc3cccnc3)c3cc(F)ccc3n2)cc1` came in with a solubility in [2] of 36 µM (≈ 12.9 µg/mL). For the same compound, the Intrinsic clearance in series [3] turned out to be 8.6 mL/min/g.
Regarding `Cc1ccc(-c2cc(C(=O)NCCN3CCCC3)c3cc(F)ccc3n2)cc1`, the response in the series on Plasmodium falciparum [4] was half-maximal at 700 nM (EC50). This compound also came in with an Intrinsic clearance in [3] of 3.4 mL/min/g.
As for `O=C(NCCN1CCCC1)c1cc(-c2ccc(CN3CCOCC3)cc2)nc2ccc(F)cc12` [CABAMIQUINE], the 50% effective concentration (EC50) is less than 1 nM in the series on Plasmodium falciparum [5]; less than 1 nM with Plasmodium falciparum [6]; 1 nM with Plasmodium falciparum [4]; less than 1 nM in the series on Plasmodium falciparum [8]; less than 1 nM in the series with Plasmodium falciparum [9]; less than 1 nM in the series on Plasmodium falciparum [10]. For the same compound, the half-maximal effective concentration (EC50) in the series with Plasmodium falciparum [11] and with Plasmodium falciparum [13] was less than 1 nM throughout. The inhibition in vivo at 1 mg/kg in the series with Plasmodium berghei [7] is greater than 99%. Further, the Intrinsic clearance in series [3] was less than 0.9 mL/min/g. In the series on Plasmodium berghei [12], the ED90 worked out at 0.3 mg/kg.

In general, solubility refers to the dissolved amount per volume that the medium holds. A lower solubility goes with little dissolved substance. By EC50 is commonly meant the midpoint of the concentration-response curve. Usually inhibition in vivo stands for how much of the control response was suppressed.
